From patent US8716303B2, “N-(hetero)aryl-pyrrolidine derivatives of pyrazol-4-yl-pyrrolo[2,3-d]pyrimidines and pyrrol-3-yl-pyrrolo[2,3-d]pyrimidines as janus kinase inhibitors” (Incyte Corporation, priority 2009, dated 2014)
Structures can show the parent of a compound that is named as a salt.

Experiments:
Jak2 (a.a. 828-1132) = target: T1, Jak2 (a.a. 828-1132) (Homo sapiens, UniProt O60674); assay: In vitro JAK kinase assay (HTRF, phosphorylation of a biotinylated peptide), JAK2, reported as JAK2/JAK1 ratio; format: biochemical; details: Assay Conditions 1 mM ATP
T1 construct: Jak2 (a.a. 828-1132); His tag (N); made in house; host or cells: insect cells (baculovirus)

[1] = target: T2, human JAK1 (a.a. 837-1142) (Homo sapiens, UniProt P23458); assay: In vitro JAK kinase assay (HTRF, phosphorylation of a biotinylated peptide), JAK1; format: biochemical; details: Assay Conditions 1 mM ATP
T2 construct: human JAK1 (a.a. 837-1142); His tag (N); made in house; host or cells: insect cells (baculovirus)
Summary of the method: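 IC50s come from HTRF detection (Eu-Py20, SA-APC, 40 min binding) after 1 h RT reactions with 500 nM biotinylated peptide in Tris pH 7.8 buffer. ATP either 1 mM or Km-level, 90 μM for JAK1 and 30 μM for JAK2; enzymes are baculovirus-expressed His-tagged catalytic domains (JAK1 837-1142, JAK2 828-1132).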

T2 sequence (P23458 849-1154): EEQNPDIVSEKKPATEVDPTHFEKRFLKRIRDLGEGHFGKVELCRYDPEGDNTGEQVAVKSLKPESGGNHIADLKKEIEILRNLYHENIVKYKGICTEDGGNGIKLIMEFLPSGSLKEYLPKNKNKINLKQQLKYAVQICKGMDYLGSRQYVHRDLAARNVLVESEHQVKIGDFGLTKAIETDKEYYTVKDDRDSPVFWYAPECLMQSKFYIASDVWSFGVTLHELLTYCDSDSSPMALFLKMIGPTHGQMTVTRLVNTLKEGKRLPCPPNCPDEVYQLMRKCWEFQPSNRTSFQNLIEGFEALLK
T1 sequence (O60674 828-1132): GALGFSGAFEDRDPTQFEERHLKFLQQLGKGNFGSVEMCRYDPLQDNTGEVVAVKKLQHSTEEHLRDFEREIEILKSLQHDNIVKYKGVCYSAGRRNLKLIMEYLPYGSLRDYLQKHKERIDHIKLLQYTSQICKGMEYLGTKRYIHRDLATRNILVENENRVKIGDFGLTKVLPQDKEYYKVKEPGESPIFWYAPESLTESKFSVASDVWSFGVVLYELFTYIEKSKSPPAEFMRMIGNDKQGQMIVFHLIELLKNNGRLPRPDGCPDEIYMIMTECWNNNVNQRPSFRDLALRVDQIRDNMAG

| JAK2/JAK1 IC50 ratio (Jak2 (a.a. 828-1132)) | IC50 [1] [nM] | Compound |
| --- | --- | --- |
| 22.8 | < 50 | N#CC[C@@H]([C@H]1CCN(c2nccc(C(F)F)c2C#N)C1)n1cc(-c2ncnc3[nH]ccc23)cn1 [Example 103, 2-((3S)-3-{(1S)-2-cyano-1-[4-(7H-pyrrolo[2,3-d]pyrimidin-4-yl)-1H-pyrazol-1-yl]ethyl}pyrrolidin-1-yl)-4-(difluoromethyl)nicotinonitrile bis(trifluoroacetate)] |
| 5.9 | < 50 | COc1ncc(F)c(N2CC[C@H]([C@H](CC#N)n3cc(-c4ncnc5[nH]ccc45)cn3)C2)n1 [Example 104, (S)-3-(4-(7H-pyrrolo[2,3-d]pyrimidin-4-yl)-1H-pyrazol-1-yl)-3-((S)-1-(5-fluoro-2-methoxypyrimidin-4-yl)pyrrolidin-3-yl)propanenitrile trifluoroacetate salt] |
| 3.0 | < 50 | N#CC[C@@H]([C@H]1CCN(c2nc(Cl)ccc2N)C1)n1cc(-c2ncnc3[nH]ccc23)cn1 [Example 105, (S)-3-(4-(7H-pyrrolo[2,3-d]pyrimidin-4-yl)-1H-pyrazol-1-yl)-3-((S)-1-(3-amino-6-chloropyridin-2-yl)pyrrolidin-3-yl)propanenitrile trifluoroacetate salt] |
| 12.6 | < 50 | N#CC[C@@H]([C@H]1CCN(c2ccnnc2C#N)C1)n1cc(-c2ncnc3[nH]ccc23)cn1 [Example 106, 4-((S)-3-((S)-1-(4-(7H-pyrrolo[2,3-d]pyrimidin-4-yl)-1H-pyrazol-1-yl)-2-cyanoethyl)pyrrolidin-1-yl) pyridazine-3-carbonitrile trifluoroacetate salt] |
| 4.8 | < 50 | N#CC[C@@H]([C@H]1CCN(c2ncc(C#N)cc2F)C1)n1cc(-c2ncnc3[nH]ccc23)cn1 [Example 107, 6-((S)-3-((S)-1-(4-(7H-pyrrolo[2,3-d]pyrimidin-4-yl)-1H-pyrazol-1-yl)-2-cyanoethyl)pyrrolidin-1-yl)-5-fluoronicotinonitrile trifluoroacetate salt] |
| 5.7 | < 50 | N#CC[C@@H]([C@H]1CCN(c2ncc(F)cc2C#N)C1)n1cc(-c2ncnc3[nH]ccc23)cn1 [Example 108, 2-((S)-3-((S)-1-(4-(7H-pyrrolo[2,3-d]pyrimidin-4-yl)-1H-pyrazol-1-yl)-2-cyanoethyl)pyrrolidin-1-yl)-5-fluoronicotinonitrile trifluoroacetate salt] |
| 5.0 | < 50 | Cc1cnc(N2CC[C@H]([C@H](CC#N)n3cc(-c4ncnc5[nH]ccc45)cn3)C2)c(C#N)c1 [Example 109, 2-((S)-3-((S)-1-(4-(7H-pyrrolo[2,3-d]pyrimidin-4-yl)-1H-pyrazol-1-yl)-2-cyanoethyl)pyrrolidin-1-yl)-5-methylnicotinonitrile trifluoroacetate salt] |
| 17.6 | < 50 | N#CC[C@@H]([C@H]1CCN(c2ncnc(C(F)F)c2C#N)C1)n1cc(-c2ncnc3[nH]ccc23)cn1 [Example 110, 4-((S)-3-((S)-1-(4-(7H-pyrrolo[2,3-d]pyrimidin-4-yl)-1H-pyrazol-1-yl)-2-cyanoethyl)pyrrolidin-1-yl)-6-(difluoromethyl)pyrimidine-5-carbonitrile trifluoroacetate salt] |
| 37.6 | < 50 | N#CC[C@@H]([C@H]1CCN(c2cccc(C(F)F)c2C#N)C1)n1cc(-c2ncnc3[nH]ccc23)cn1 [Example 111, 2-((S)-3-((S)-1-(4-(7H-pyrrolo[2,3-d]pyrimidin-4-yl)-1H-pyrazol-1-yl)-2-cyanoethyl)pyrrolidin-1-yl)-6-(difluoromethyl)benzonitrile trifluoroacetate salt] |
| 35.7 | < 50 | COCc1cccc(N2CC[C@H]([C@H](CC#N)n3cc(-c4ncnc5[nH]ccc45)cn3)C2)c1C#N [Example 112, 2-((S)-3-((S)-1-(4-(7H-pyrrolo[2,3-d]pyrimidin-4-yl)-1H-pyrazol-1-yl)-2-cyanoethyl)pyrrolidin-1-yl)-6-(methoxymethyl)benzonitrile] |
| 3.7 | < 50 | N#Cc1ncccc1N1CC[C@H](C(CF)n2cc(-c3ncnc4[nH]ccc34)cn2)C1 (stereo partly drawn) [Example 117, 3-((3S)-3-{2-fluoro-1-[4-(7H-pyrrolo[2,3-d]pyrimidin-4-yl)-1H-pyrazol-1-yl]ethyl}pyrrolidin-1-yl)pyridine-2-carbonitrile trifluoroacetate] |
| 2.8 | < 50 | N#Cc1cccnc1N1CC[C@H](C(CF)n2cc(-c3ncnc4[nH]ccc34)cn2)C1 (stereo partly drawn) [Example 118, 2-((3S)-3-{2-fluoro-1-[4-(7H-pyrrolo[2,3-d]pyrimidin-4-yl)-1H-pyrazol-1-yl]ethyl}pyrrolidin-1-yl)nicotinonitrile trifluoroacetate] |
| 7.6 | < 50 | O=S1(=O)CCc2ccc(N3CC[C@H](C(CF)n4cc(-c5ncnc6[nH]ccc56)cn4)C3)nc21 (stereo partly drawn) [Example 119, 4-(1-{1-[(3S)-1-(1,1-dioxido-2,3-dihydrothieno[2,3-b]pyridin-6-yl)pyrrolidin-3-yl]-2-fluoroethyl}-1H-pyrazol-4-yl)-7H-pyrrolo[2,3-d]pyrimidine trifluoroacetate] |
| 3.5 | < 50 | N#Cc1ccnc(N2CC[C@H](C(CF)n3cc(-c4ncnc5[nH]ccc45)cn3)C2)c1C#N (stereo partly drawn) [Example 120, 2-((3S)-3-(1-(4-(7H-pyrrolo[2,3-d]pyrimidin-4-yl)-1H-pyrazol-1-yl)-2-fluoroethyl)pyrrolidin-1-yl)pyridine-3,4-dicarbonitrile trifluoroacetate] |
| 4.4 | < 50 | N#Cc1cccc(N2CC[C@H](C(CF)n3cc(-c4ncnc5[nH]ccc45)cn3)C2)c1C#N (stereo partly drawn) [Example 121, 3-((3S)-3-{2-fluoro-1-[4-(7H-pyrrolo[2,3-d]pyrimidin-4-yl)-1H-pyrazol-1-yl]ethyl}pyrrolidin-1-yl)phthalonitrile trifluoroacetate] |
| 188.0 | < 50 | N#CC[C@@H]([C@H]1CCN(c2nccc(I)c2C#N)C1)n1cc(-c2ncnc3[nH]ccc23)cn1 [Example 122, 2-((3S)-3-{(1S)-2-cyano-1-[4-(7H-pyrrolo[2,3-d]pyrimidin-4-yl)-1H-pyrazol-1-yl]ethyl}pyrrolidin-1-yl)-4-iodonicotinonitrile trifluoroacetate] |
| >16.7 | < 50 | N#CC[C@@H]([C@H]1CCN(c2ccnc(Cl)c2C#N)C1)n1cc(-c2ncnc3[nH]ccc23)cn1 [Example 123, 2-chloro-4-((3S)-3-{(1S)-2-cyano-1-[4-(7H-pyrrolo[2,3-d]pyrimidin-4-yl)-1H-pyrazol-1-yl]ethyl}pyrrolidin-1-yl)nicotinonitrile trifluoroacetate] |
| >10.5 | < 50 | N#CC[C@@H]([C@H]1CCN(c2ccnc(C#N)c2C#N)C1)n1cc(-c2ncnc3[nH]ccc23)cn1 [Example 124, 4-((3S)-3-{(1S)-2-cyano-1-[4-(7H-pyrrolo[2,3-d]pyrimidin-4-yl)-1H-pyrazol-1-yl]ethyl}pyrrolidin-1-yl)pyridine-2,3-dicarbonitrile trifluoroacetate] |
| 132.5 | < 50 | N#CC[C@@H]([C@H]1CCN(c2ccc(Cl)nc2Cl)C1)n1cc(-c2ncnc3[nH]ccc23)cn1 [Example 125, (3S)-3-[(3S)-1-(2,6-dichloropyridin-3-yl)pyrrolidin-3-yl]-3-[4-(7H-pyrrolo[2,3-d]pyrimidin-4-yl)-1H-pyrazol-1-yl]propanenitrile trifluoroacetate] |
| 5.9 | < 50 | N#Cc1ncsc1N1CC[C@H](C(CF)n2cc(-c3ncnc4[nH]ccc34)cn2)C1 (stereo partly drawn) [Example 126, 5-((3S)-3-{2-fluoro-1-[4-(7H-pyrrolo[2,3-d]pyrimidin-4-yl)-1H-pyrazol-1-yl]ethyl}pyrrolidin-1-yl)-1,3-thiazole-4-carbonitrile trifluoroacetate] |
| 11.0 | < 50 | CSc1ccnc(N2CC[C@H]([C@H](CC#N)n3cc(-c4ncnc5[nH]ccc45)cn3)C2)c1C#N [Example 127, 2-((3S)-3-{(1S)-2-cyano-1-[4-(7H-pyrrolo[2,3-d]pyrimidin-4-yl)-1H-pyrazol-1-yl]ethyl}pyrrolidin-1-yl)-4-(methylthio)nicotinonitrile trifluoroacetate] |
| 4.7 | < 50 | CS(=O)(=O)c1ccnc(N2CC[C@H]([C@H](CC#N)n3cc(-c4ncnc5[nH]ccc45)cn3)C2)c1C#N [Example 128, 2-((3S)-3-{(1S)-2-cyano-1-[4-(7H-pyrrolo[2,3-d]pyrimidin-4-yl)-1H-pyrazol-1-yl]ethyl}pyrrolidin-1-yl)-4-(methylsulfonyl)nicotinonitrile] |
| 5.9 | < 50 | CSc1nc(N2CC[C@H]([C@H](CC#N)n3cc(-c4ncnc5[nH]ccc45)cn3)C2)c(F)cc1F [Example 129, (3S)-3-{(3S)-1-[3,5-Difluoro-6-(methylthio)pyridin-2-yl]pyrrolidin-3-yl}-3-[4-(7H-pyrrolo[2,3-d]pyrimidin-4-yl)-1H-pyrazol-1-yl]propanenitrile] |
| 14.8 | < 50 | CS(=O)(=O)c1nc(N2CC[C@H]([C@H](CC#N)n3cc(-c4ncnc5[nH]ccc45)cn3)C2)c(F)cc1F [Example 130, (3S)-3-{(3S)-1-[3,5-difluoro-6-(methylsulfonyl)pyridin-2-yl]pyrrolidin-3-yl}-3-[4-(7H-pyrrolo[2,3-d]pyrimidin-4-yl)-1H-pyrazol-1-yl]propanenitrile trifluoroacetate] |
